Data reported in ChEMBL document CHEMBL3792282, “Cinnamic acid amides from Tribulus terrestris displaying uncompetitive α-glucosidase inhibition” (Eur J Med Chem, 2016).
Active and inactive are the calls of the source. The rule behind the calls is not given here.

How the values were obtained:
Homo sapiens [1] = species: Homo sapiens; assay: Inhibition of alpha-mannosidase (unknown origin) up to 200 uM
[2] = (§1) Inhibition of baker's yeast alpha-glucosidase using pNPG as substrate by spectrophotometry; parameters: species or system Saccharomyces cerevisiae
Saccharomyces cerevisiae [3] = assay: as §1
[4] = target: T1, Beta-glucosidase (Homo sapiens) (UniProt Q9HCG7); assay: Inhibition of beta-glucosidase (unknown origin) up to 200 uM
T1 sequence (whole entry): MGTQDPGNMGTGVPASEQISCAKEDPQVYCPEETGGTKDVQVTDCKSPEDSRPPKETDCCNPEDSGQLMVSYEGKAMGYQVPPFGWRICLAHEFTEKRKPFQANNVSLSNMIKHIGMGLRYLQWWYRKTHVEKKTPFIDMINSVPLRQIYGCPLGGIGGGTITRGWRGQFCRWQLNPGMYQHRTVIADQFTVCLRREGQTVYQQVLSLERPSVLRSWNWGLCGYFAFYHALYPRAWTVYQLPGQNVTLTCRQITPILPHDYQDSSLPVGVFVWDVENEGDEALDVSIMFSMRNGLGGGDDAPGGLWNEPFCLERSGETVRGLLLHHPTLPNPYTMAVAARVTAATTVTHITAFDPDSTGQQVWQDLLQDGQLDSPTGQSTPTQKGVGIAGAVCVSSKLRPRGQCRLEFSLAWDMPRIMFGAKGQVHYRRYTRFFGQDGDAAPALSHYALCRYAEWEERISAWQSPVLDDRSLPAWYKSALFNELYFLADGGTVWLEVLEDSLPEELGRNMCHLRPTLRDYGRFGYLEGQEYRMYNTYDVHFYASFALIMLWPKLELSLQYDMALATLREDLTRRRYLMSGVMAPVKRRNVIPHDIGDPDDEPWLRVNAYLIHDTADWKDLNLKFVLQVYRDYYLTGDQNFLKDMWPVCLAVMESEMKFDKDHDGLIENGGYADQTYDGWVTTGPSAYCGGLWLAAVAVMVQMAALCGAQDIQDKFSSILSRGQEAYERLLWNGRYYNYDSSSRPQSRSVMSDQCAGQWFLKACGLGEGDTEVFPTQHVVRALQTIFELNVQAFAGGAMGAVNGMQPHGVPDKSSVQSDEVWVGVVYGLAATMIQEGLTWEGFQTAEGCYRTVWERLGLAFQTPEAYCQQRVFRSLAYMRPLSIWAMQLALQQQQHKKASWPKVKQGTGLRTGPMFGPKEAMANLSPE

[5] = target: Alpha amylase (Homo sapiens) (UniProt P0DUB6); assay: Inhibition of alpha-amylase (unknown origin) up to 200 uM
Chain of Alpha amylase (Homo sapiens) (P0DUB6 whole entry, looked up): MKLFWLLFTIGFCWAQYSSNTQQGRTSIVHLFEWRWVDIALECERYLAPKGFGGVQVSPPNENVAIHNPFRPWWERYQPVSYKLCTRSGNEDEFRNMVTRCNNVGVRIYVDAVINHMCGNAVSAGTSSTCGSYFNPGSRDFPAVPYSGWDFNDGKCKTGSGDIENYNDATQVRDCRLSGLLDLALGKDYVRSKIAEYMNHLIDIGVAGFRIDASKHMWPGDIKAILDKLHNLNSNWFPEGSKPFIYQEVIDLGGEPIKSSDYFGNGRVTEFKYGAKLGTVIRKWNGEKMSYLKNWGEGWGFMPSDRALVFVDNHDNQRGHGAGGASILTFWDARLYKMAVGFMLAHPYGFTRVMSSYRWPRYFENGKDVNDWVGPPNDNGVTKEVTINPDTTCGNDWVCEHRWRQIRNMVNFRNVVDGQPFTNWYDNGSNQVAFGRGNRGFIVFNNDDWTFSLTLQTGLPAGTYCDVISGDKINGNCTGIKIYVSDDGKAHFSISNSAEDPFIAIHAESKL

[6] = Uncompetitive inhibition of baker's yeast alpha-glucosidase using pNPG as substrate by Cornish-Bowden plot analysis; parameters: species or system Saccharomyces cerevisiae
Homo sapiens [7] = species: Homo sapiens; assay: Inhibition of alpha-galactosidase (unknown origin) up to 200 uM
Saccharomyces cerevisiae [8] = assay: Uncompetitive inhibition of baker's yeast alpha-glucosidase using pNPG as substrate assessed as ratio of Kik to Kiv at 1.56 uM by Lineweaver-Burk plot analysis
Saccharomyces cerevisiae [9] = assay: Uncompetitive inhibition of baker's yeast alpha-glucosidase using pNPG as substrate assessed as ratio of Kik to Kiv at 0.19 uM by Lineweaver-Burk plot analysis
Saccharomyces cerevisiae [10] = assay: Uncompetitive inhibition of baker's yeast alpha-glucosidase using pNPG as substrate assessed as ratio of Kik to Kiv at 0.39 uM by Lineweaver-Burk plot analysis
Saccharomyces cerevisiae [11] = assay: Uncompetitive inhibition of baker's yeast alpha-glucosidase using pNPG as substrate assessed as ratio of Kik to Kiv at 0.78 uM by Lineweaver-Burk plot analysis

Structure (SMILES): O=C(/C=C/c1ccc(O)c(O)c1)NCCc1ccc(O)cc1
- inhibition (Homo sapiens [1]): inactive
- IC50 [2]: 1.86 µM
- inhibition (Saccharomyces cerevisiae [3]): Dose-dependent effect
- inhibition [4]: inactive
- inhibition [5]: inactive
- Ki [6]: 1.77 µM
- inhibition (Homo sapiens [7]): inactive

Structure (SMILES): O=C(CCc1ccc(O)cc1)NCCc1ccc(O)cc1
- IC50 [2]: 19 µM
- Ki [6]: 18.2 µM

Structure (SMILES): O=C(/C=C/c1ccc(O)cc1)NCCc1ccc(F)cc1
- IC50 [2]: 1.22 µM
- Ki [6]: 1.38 µM

Structure (SMILES): COc1cc(/C=C/C(=O)NCCc2ccc(O)cc2)ccc1O [N-TRANS-FERULOYL TYRAMINE]
- inhibition (Homo sapiens [1]): inactive
- IC50 [2]: 10.6 µM
- inhibition (Saccharomyces cerevisiae [3]): Dose-dependent effect
- inhibition [4]: inactive
- inhibition [5]: inactive
- Ki [6]: 11.3 µM
- inhibition (Homo sapiens [7]): inactive

Structure (SMILES): O=C(/C=C/c1ccc(O)cc1)NCCc1ccc(O)cc1 [N-P-COUMAROYL TYRAMINE]
- inhibition (Homo sapiens [1]): inactive
- IC50 [2]: 0.42 µM
- inhibition (Saccharomyces cerevisiae [3]): Dose-dependent effect
- Ratio (Saccharomyces cerevisiae [8]): 1.03
- inhibition [4]: inactive
- Ratio (Saccharomyces cerevisiae [9]): 1.03
- inhibition [5]: inactive
- Ratio (Saccharomyces cerevisiae [10]): 1.04
- Ki [6]: 0.35 µM
- Ratio (Saccharomyces cerevisiae [11]): 1.05
- inhibition (Homo sapiens [7]): inactive

Structure (SMILES): COc1cc(/C=C/C(=O)NCC(O)c2ccc(O)cc2)ccc1O (centres undefined)
- inhibition (Homo sapiens [1]): inactive
- IC50 [2]: 188 µM
- inhibition (Saccharomyces cerevisiae [3]): Dose-dependent effect
- inhibition [4]: inactive
- inhibition [5]: inactive
- inhibition (Homo sapiens [7]): inactive

Structure (SMILES): COc1cc(/C=C/C(=O)NCC(=O)c2ccc(O)cc2)ccc1O
- inhibition (Homo sapiens [1]): inactive
- IC50 [2]: 61.5 µM
- inhibition (Saccharomyces cerevisiae [3]): Dose-dependent effect
- inhibition [4]: inactive
- inhibition [5]: inactive
- Ki [6]: 62.1 µM
- inhibition (Homo sapiens [7]): inactive

Structure (SMILES): O=C(/C=C/c1ccccc1)NCCc1ccc(O)cc1
- IC50 [2]: 215 µM

Structure (SMILES): O=C(/C=C/c1ccc(O)cc1)NCCc1ccc(O)c(O)c1
- IC50 [2]: 1.63 µM
- Ki [6]: 1.74 µM

Structure (SMILES): COc1cc(/C=C/C(=O)NC(O)C(=O)c2ccc(O)cc2)ccc1O (centres undefined)
- inhibition (Homo sapiens [1]): inactive
- IC50 [2]: 226 µM
- inhibition (Saccharomyces cerevisiae [3]): Dose-dependent effect
- inhibition [4]: inactive
- inhibition [5]: inactive
- inhibition (Homo sapiens [7]): inactive

Structure (SMILES): O=C(/C=C/c1ccc(O)cc1)NCCc1ccccc1
- IC50 [2]: 0.31 µM
- Ki [6]: 0.29 µM
